Test results taken from ChEMBL document CHEMBL1201862, “PubChem BioAssay data set” (2004).
Activity calls are given as the source filed them.

Assays:
Vero = test: cells; format: functional; settings: Chlorocebus sabaeus
[1] = biological target: T1, Polyadenylate-binding protein 1 (Homo sapiens, UniProt P11940); test: PABP1 MLLE–PAM2 binding inhibitor potency, dose response, biochemical, fluorescence polarization, FITC-PAM2 peptide (AID 602259); format: functional; settings: read-out: IC50_Mean
[2] = biological target: T1, Polyadenylate-binding protein 1; test: PABP1 MLLE–PAM2 interaction inhibitors, dose response, miRNA deadenylation inhibitor project, biochemical, fluorescence polarization, Cy5-PAM2 peptide, secondary (AID 602260); format: functional; settings: read-out: IC50_Mean
BJ [3] = test: cytotoxicity toward BJ-TERT fibroblasts, dose response, cell-based, RAS-independent, luminescence (AID 1933); format: functional; settings: Homo sapiens
BJ [4] = test: cells; format: functional, cell-based; settings: Homo sapiens
[5] = cytotoxicity toward DRD oncogenic fibroblasts, dose response, cell-based, non-viral oncogenic, luminescence (AID 1934); format: functional; settings: Homo sapiens
BJ [6] = test: cytotoxicity toward BJ-TERT-LT-ST fibroblasts, dose response, cell-based, RAS-independent, luminescence (AID 1935); format: functional; settings: Homo sapiens;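 also: BJ fibroblasts immortalized with TERT plus LT and ST oncogenes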
[7] = biological target: T2, Replicative DNA helicase DnaB (Mycobacterium tuberculosis, UniProt P9WMR3); test: DnaB intein splicing inhibitors, dose response, biochemical, cell-free fluorescence (AID 449749); format: functional
T2 sequence (P9WMR3 whole entry): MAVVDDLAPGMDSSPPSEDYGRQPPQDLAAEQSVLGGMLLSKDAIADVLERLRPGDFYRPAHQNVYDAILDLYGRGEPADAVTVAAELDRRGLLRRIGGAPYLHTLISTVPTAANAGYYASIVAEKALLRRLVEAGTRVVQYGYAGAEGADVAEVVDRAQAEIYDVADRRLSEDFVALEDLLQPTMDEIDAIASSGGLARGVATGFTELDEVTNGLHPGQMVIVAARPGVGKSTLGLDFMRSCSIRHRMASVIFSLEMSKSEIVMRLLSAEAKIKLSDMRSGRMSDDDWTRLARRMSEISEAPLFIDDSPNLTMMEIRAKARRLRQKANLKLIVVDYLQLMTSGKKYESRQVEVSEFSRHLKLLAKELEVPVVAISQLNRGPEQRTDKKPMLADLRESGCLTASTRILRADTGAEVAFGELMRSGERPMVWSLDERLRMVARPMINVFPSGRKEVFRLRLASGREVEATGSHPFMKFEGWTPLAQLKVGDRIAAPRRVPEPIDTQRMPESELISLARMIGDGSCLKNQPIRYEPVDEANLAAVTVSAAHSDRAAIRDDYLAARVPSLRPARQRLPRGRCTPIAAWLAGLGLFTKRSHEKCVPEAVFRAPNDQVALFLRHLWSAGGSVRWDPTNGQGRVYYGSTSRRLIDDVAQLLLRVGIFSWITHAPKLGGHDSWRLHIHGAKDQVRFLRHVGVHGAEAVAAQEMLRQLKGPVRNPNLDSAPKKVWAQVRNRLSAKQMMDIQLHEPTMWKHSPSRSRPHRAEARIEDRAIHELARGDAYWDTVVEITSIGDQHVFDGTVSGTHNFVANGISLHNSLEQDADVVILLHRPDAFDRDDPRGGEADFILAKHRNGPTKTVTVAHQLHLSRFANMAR

[8] = biological target: T3, Calpain-2 catalytic subunit (Sus scrofa, UniProt P43367); test: pig calpain II inhibitor potency, dose response, biochemical, fluorogenic peptide substrate (AID 1420); format: functional
T3 sequence (P43367 whole entry): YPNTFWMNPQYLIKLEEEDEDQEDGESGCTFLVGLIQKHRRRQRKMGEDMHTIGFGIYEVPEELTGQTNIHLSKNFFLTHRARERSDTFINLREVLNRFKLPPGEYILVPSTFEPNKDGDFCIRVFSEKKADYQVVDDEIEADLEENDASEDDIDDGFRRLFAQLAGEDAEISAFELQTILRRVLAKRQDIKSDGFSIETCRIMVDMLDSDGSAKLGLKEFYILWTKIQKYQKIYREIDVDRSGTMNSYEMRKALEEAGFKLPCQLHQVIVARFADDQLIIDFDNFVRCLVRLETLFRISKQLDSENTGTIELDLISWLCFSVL

Protein RecA = biological target: T4, Protein RecA (Mycobacterium tuberculosis, UniProt P9WHJ3); test: Fluorescence Cell-Free Homogeneous Dose Retest to Identify Inhibitors of RecA-Intein Splicing Activity. [Related pubchem assays (depositor defined):AID2097, AID2223, AID489010, AID492950]; format: functional
T4 sequence (P9WHJ3 whole entry): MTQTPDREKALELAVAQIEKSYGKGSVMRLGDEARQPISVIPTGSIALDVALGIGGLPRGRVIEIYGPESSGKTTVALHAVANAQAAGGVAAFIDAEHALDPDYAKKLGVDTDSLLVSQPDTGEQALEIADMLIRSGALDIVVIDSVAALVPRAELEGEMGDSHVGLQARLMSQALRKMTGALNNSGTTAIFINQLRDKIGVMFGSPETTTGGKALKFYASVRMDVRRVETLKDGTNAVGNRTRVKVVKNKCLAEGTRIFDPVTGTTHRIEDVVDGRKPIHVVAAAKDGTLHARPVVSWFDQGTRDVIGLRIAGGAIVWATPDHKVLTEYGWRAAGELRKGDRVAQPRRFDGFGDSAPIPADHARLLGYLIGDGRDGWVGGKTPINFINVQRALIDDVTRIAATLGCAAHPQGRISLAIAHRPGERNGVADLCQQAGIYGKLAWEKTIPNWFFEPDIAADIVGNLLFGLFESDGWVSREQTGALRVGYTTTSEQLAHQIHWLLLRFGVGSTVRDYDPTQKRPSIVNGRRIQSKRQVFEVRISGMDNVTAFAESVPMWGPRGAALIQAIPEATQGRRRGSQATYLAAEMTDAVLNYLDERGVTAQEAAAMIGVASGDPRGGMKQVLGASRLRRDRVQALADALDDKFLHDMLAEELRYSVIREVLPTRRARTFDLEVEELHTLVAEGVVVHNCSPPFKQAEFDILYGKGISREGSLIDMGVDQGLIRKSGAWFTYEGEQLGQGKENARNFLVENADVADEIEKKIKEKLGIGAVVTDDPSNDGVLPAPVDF

[9] = inhibitors of intracellular T. cruzi replication, confirmation, NIH3T3 host cells, beta-gal luminescence (AID 2044); format: functional, cell-based;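 also: intracellular parasites grown in NIH/3T3 mouse fibroblasts as host cells; luminescent beta-galactosidase reporter signal from transgenic T. cruzi replicating inside host cells; inhibitors lower the luminescence signal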
[10] = cytotoxicity toward NIH3T3 fibroblasts, dose response, counter-screen, cell-based, ATP luminescence, mouse fibroblasts (AID 2010); format: functional;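 also: cells exposed to compound for about 90 hours before reading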
Streptococcus = test: Group A Streptococcus viability loss, dose response, counter-screen for streptokinase expression inhibitor project, luminescence, BacTiterGlo (AID 1915); format: functional, organism-based;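 also: potency for reduction of bacterial viability or growth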
[11] = tested on: Streptococcus sp. 'group A'; test: growth inhibition of control SK(-) GAS strain, dose response, counter-screen for streptokinase expression inhibitor project, luminescence, kanamycin, BacTiterGlo, confirmation (AID 1900); format: functional, organism-based
[12] = growth suppression of beta-catenin-knockout colon cells, dose response, cell-based, HCT116, human colon tumor (AID 1045); format: functional;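 also: HCT116 colon tumor cells with beta catenin knocked out; cells exposed to compound for 60 hours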
[13] = growth suppression of PTEN-null colon cells, dose response, cell-based, HCT116 PTEN knockout (AID 1047); format: functional;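 also: HCT116 colon tumor cells with PTEN knocked out; cells exposed to compound for 60 hours before readout; potency for loss of cell viability measured by luminescence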
[14] = Luminescence Cell-Based Dose Response HTS to Identify Activators of Luciferase Translation or Activity in H4 […] Cells. [Related pubchem assays: 1829 (Project Summary), 1814 (Primary HTS)]; format: functional
[15] = Luminescence Cell-Based Dose Confirmation HTS to Identify Activators of 5'UTR Stem-Loop Driven Alpha-Synuclein mRNA Translation in H4 Neuroglioblastoma Cells. [Related pubchem assays: 1829 (Project Summary), 1814 (Primary HTS)]; format: functional
H4 = test: Luminescence Cell-Based Dose Response HTS to Identify Activators of 5'UTR Stem-Loop Driven Prion Protein mRNA Translation in H4 Neuroglioblastoma Cells. [Related pubchem assays: 1829 (Project Summary), 1814 (Primary HTS)]; format: functional; settings: Homo sapiens
[16] = biological target: FAD-linked sulfhydryl oxidase ALR (Homo sapiens, UniProt P55789); test: inhibitors of human ALR sulfhydryl oxidase, dose response, biochemical, H2O2 detection, luminescence, cherry-pick (AID 493248)
Chain of FAD-linked sulfhydryl oxidase ALR (P55789 whole entry): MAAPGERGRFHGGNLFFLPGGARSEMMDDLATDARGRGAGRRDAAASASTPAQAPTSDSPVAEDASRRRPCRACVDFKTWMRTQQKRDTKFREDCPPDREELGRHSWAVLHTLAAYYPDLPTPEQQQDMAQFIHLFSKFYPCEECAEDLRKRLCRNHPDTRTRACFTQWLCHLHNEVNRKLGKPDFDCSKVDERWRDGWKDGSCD

T1 sequence (P11940 whole entry): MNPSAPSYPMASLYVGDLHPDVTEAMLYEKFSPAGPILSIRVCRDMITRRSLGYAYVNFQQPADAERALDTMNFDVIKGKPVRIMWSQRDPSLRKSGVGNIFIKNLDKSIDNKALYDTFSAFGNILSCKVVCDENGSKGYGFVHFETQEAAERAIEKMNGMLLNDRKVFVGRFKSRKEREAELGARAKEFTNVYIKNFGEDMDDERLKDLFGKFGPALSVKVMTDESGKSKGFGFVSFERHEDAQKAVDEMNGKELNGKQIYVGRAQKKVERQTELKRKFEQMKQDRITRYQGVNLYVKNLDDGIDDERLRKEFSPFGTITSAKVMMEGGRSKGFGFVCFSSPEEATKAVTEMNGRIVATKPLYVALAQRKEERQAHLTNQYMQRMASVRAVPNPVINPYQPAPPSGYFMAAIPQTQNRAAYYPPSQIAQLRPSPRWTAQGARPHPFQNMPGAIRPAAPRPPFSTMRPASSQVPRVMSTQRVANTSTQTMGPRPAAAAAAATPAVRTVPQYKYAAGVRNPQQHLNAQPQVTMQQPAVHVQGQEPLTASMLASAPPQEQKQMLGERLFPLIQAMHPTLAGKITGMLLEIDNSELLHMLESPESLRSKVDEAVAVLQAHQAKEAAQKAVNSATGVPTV

## COc1cccc(/C=C2\SC(=S)N(CCC(=O)N3CCCCC3CCO)C2=O)c1 (centres undefined)
Vero
  CC50: 15.9 µM (active)

## COc1cc(C(=O)NC2=NCCS2)ccc1OCc1c(C)noc1C
[1]
  IC50: > 66 µM (inactive)
[2]
  IC50: > 66 µM (inactive)

## O=Cc1[nH]c2ccccc2c1N(C(=O)CCl)c1ccc([N+](=O)[O-])cc1
BJ [3]
  EC50: 5.65 µM (inconclusive)
BJ [4]
  EC50: 7.89 µM (active)
[5]
  EC50: 5.75 µM (inconclusive)
BJ [6]
  EC50: 4.03 µM (active)

## CCn1c(COc2ccc(Cl)cc2)nnc1SC1CCc2ccccc2C1=O (centres undefined)
[7]
  AC50: 9.31 µM (active)
[8]
  IC50: 7.24 µM (not active)
Protein RecA
  EC50: 25.4 µM (active)

## COc1ccc(CNC(=O)CN(Cc2ccc(C)cc2)C(=O)c2csnn2)cc1
[1]
  IC50: > 66 µM (inactive)
[2]
  IC50: > 66 µM (inactive)

## O=C(Nc1ccccc1N1CCCCC1)c1ccc(-c2ccc(Cl)cc2)o1
BJ [3]
  EC50: 3.11 µM (inconclusive)
BJ [4]
  EC50: 40.9 µM (inconclusive)
[5]
  EC50: 2.91 µM (active)
BJ [6]
  EC50: 46.9 µM (inconclusive)

## O=C(Nc1ccc(Oc2ccccc2)nc1)C1CCCCN1Cc1ccco1 (centres undefined)
BJ [3]
  EC50: 8.7 µM (inconclusive)
BJ [4]
  EC50: 35.3 µM (active)
[5]
  EC50: 17.3 µM (inconclusive)
BJ [6]
  EC50: 5.04 µM (inconclusive)

## O=C(CSC1=Nc2ccccc2C2=NC(CC(=O)NCc3ccco3)C(=O)N12)NCc1ccco1 (centres undefined)
[1]
  IC50: > 66 µM (inactive)
[2]
  IC50: > 66 µM (inactive)

## CC(C)(C)c1ccc(C(=O)NC(=S)Nc2ccc(N3CCOCC3)cc2)cc1
BJ [3]
  EC50: 18.2 µM (active)
BJ [4]
  EC50: 148 µM (inconclusive)
[5]
  EC50: > 150 µM (not active)
BJ [6]
  EC50: > 150 µM (not active)

## O=C(O)C1CSC(c2ccncc2)N1 (centres undefined)
[1]
  IC50: > 66 µM (inactive)
[2]
  IC50: > 66 µM (inactive)

## O=C(CCl)N(CCc1ccccc1)CCc1ccccc1
[9]
  EC50: 2.07 µM (active)
[7]
  AC50: 10 µM (active)
Protein RecA
  EC50: 2.36 µM (active)
[10]
  EC50: > 30 µM (not active)
Vero
  CC50: 8.89 µM (active)

## CCOc1ccccc1CNC(=O)c1cn(C)c(=O)c2c1c1ccccc1n2C
Vero
  CC50: > 25 µM (active)

## Cc1cccn2c(=O)c3cc(C(=O)NCc4ccco4)c(=N)n(CCOCCO)c3nc12
[1]
  IC50: 15.2 µM (active)
[2]
  IC50: > 66 µM (inactive)

## CCC(CC)c1nnc(NC(=O)CC(C)c2ccccc2)s1 (centres undefined)
BJ [3]
  EC50: > 150 µM (not active)
BJ [4]
  EC50: > 150 µM (not active)
[5]
  EC50: > 150 µM (not active)
BJ [6]
  EC50: > 75 µM (inconclusive)

## CC1=Nc2cc(C(=O)NCCCOC(C)C)ccc2Sc2ccccc21
BJ [3]
  EC50: 15.4 µM (active)
BJ [4]
  EC50: 57.5 µM (active)
[5]
  EC50: 18.6 µM (active)
BJ [6]
  EC50: > 150 µM (inconclusive)

## CC1(C)Cc2c(c(-c3ccco3)[nH]c(=O)c2C#N)CS1
[1]
  IC50: 26 µM (inactive)
[2]
  IC50: > 66 µM (inactive)

## Cc1ccccc1SCC(=O)NC1CCOC1=O (centres undefined)
[1]
  IC50: > 66 µM (inactive)
[2]
  IC50: > 66 µM (inactive)

## Cc1cccc(-c2nnc(NC(=O)c3ccc(Cl)cc3)o2)c1
Streptococcus
  EC50: 0.81 µM (active)
[11]
  EC50: 0.099 µM (active)
[12]
  EC50: 17.4 µM (active)
[13]
  EC50: 23.1 µM (active)
Vero
  CC50: > 25 µM (active)

## Cc1ccc2ncccc2c1NC(=S)NC(=O)c1ccccc1
[1]
  IC50: > 66 µM (inactive)
[2]
  IC50: > 66 µM (inactive)

## C=COC(=O)NC1CCc2cc(OC)c(OC)c(OC)c2-c2ccc(SC)c(=O)cc21 (centres undefined)
Vero
  CC50: < 0.05 µM (active)

## Cn1c(CCC(=O)O)nc2cc(S(=O)(=O)N3CCCCC3)ccc21
[1]
  IC50: > 66 µM (inactive)
[2]
  IC50: > 66 µM (inactive)

## Cc1ccc(S(=O)(=O)N2C[C@H]3n4c(=O)ccc(=O)n4C[C@H](OC(=O)NCC4CCCCC4)[C@@]3(O)C2)cc1
Vero
  CC50: > 25 µM (active)

## CN(C)c1n/c(=N/c2cccc(Cl)c2)ss1
Vero
  CC50: 21.6 µM (active)

## CCCCCC(=O)Nc1ccc(N2CCN(CC)CC2)c(Cl)c1
[14]
  EC50: 5.11 µM (active)
[15]
  EC50: 15.5 µM (active)
H4
  EC50: 5.08 µM (active)
[8]
  IC50: 18.8 µM (not active)

## O=C1Cc2c(-c3ccccc3)cc(-c3cccc(Cl)c3)nc2-c2ccccc2N1
Vero
  CC50: 11.4 µM (active)

## CC(=O)Nc1ccc(C2=NN(C)/C(=N/Cc3ccccc3)SC2)cc1
[8]
  IC50: 8.93 µM (not active)
[16]
  AC50: 3.9 µM (active)

## CCCCCOc1ccc(/C(C)=N/NC2=NCCN2)cc1
Vero
  CC50: > 25 µM (active)

## CC(=O)O[C@H]1C[C@]2(O)[C@@H]3CC[C@@H]4C[C@@H](O)CC[C@]4(C)[C@H]3CC[C@]2(C)[C@H]1C1=CC(=O)OC1
Vero
  CC50: 0.46 µM (active)

## Cc1nc(NC(=O)c2ccco2)sc1C(=O)O
BJ [3]
  EC50: 7.4 µM (active)
BJ [4]
  EC50: 4.14 µM (active)
[5]
  EC50: 10.3 µM (active)
BJ [6]
  EC50: > 150 µM (inconclusive)

## COc1ccc(C(=O)/C=C/c2ccccc2)c(OC)c1
Vero
  CC50: 12.4 µM (active)
